In patent US20080182904A1, “Baclofen for Relapse Protection in Addiction” (priority 2007, published 2008):

Columns and labels:
[1] = cited from earlier work
[2] = cited from earlier work; remark: listed apart in the source
[3] = Alcohol-challenge test for relapse in a patient treated with baclofen for alcohol dependence; assay type: in vivo, human
Experimental: For alcoholism, vulnerability is tested with an alcohol-challenge test of about three to five standard drinks. The number of drinks can and should be varied (typically lower) if any adverse signs or cravings appear in the patient. […] If craving occurs, the patient is not protected against relapse and the SSD dosage needs to be increased and the test performed again until craving stops occurring altogether upon renewed alcohol-challenge (s). Once that state is achieved, the patient is protected against relapse.
The susceptibility of a patient to relapse while being treated for alcohol dependence using baclofen was determined. The patient (themself a physician) had been symptom-free for more than one year and was on a baclofen dose of 120 mg/day (40 mg, three times per day).
First challenge: During a social gathering, the patient had 3 standard drinks of alcohol (gin and tonic) over a few hours and evaluated the effects in the presence of a physician witness. The first drink was consumed slowly by sipping over some 40 minutes, without the slightest urge to drink it rapidly (and which had previously been the only way the patient would drink, e.g., typically consuming the drink within 5 minutes). A second drink was ordered, consumed and started to produce a pleasant mild euphoria. A third drink was begun but the patient was not able to finish it, something that would have been impossible during untreated alcohol dependence. At the time, the patient felt no desire to finish the third drink, felt a bit high and maintained the ability to chat. After a night's sleep, the patient woke up without any feelings of remorse or fear. […] The following hours were unremarkable. No alcohol thoughts or dreams occurred in the following weeks.
Second challenge: The patient repeated the experiment approximately one month later with an even stronger challenge: five drinks. Again in the presence of another physician, the patient succeeded in having 5 drinks of vodka and tonic over 6 hours. […] Accordingly the daily dosage of baclofen was increased from 40 mg three times daily, to 60 mg three times daily (180 mg/day). […] Accordingly, symptom suppression is dose-dependent and may require higher dosage when challenge is important.
Third challenge: To test if a higher than routine dose of baclofen can prevent cravings, even in the presence of a massive amount of alcohol such as is ingested during heavy drinking or during active relapse, the patient's baclofen dose was […] 24 hours prior to consuming an alcoholic beverage. The patient took 30 mg baclofen in the morning, a second such dose 8 hours later and a few hours later (in the evening) took dose of 80 mg baclofen at the same time as beginning to drink large amounts of alcohol as could reasonably tolerated, expecting that to be about a fifth of Scotch. The alcohol was consumed over several hours and the next day, actual consumption was measured to be four fifths of the bottle. […] The patient is able to have an occasional drink in a non-dependent fashion.

## NCC(CC(=O)O)c1ccc(Cl)cc1 (centres unmarked) [baclofen]
[1]; seven individual patients (Geneva) and one hundred patients (Vienna)
  complete and prolonged suppression of symptoms and consequences of AD: successfully reproduced
[1]; some patients treated in Switzerland, even at high-dose baclofen
  relapse: did relapse
[2]; after progressive reduction from SSD, over the complete nine months of the published study
  dosage sufficient for craving not to reappear: 120 mg/day
[2]; at SSD
  coexistent (comorbid preexisting) anxiety: greatly attenuated
[2]; at SSD, reduced by lowering the dosage to 120 mg/day
  side effect: somnolence
[2]; oral, gradual dose-escalation, one patient
  dose needed for craving to completely and permanently disappear (symptom-suppressing dose, SSD): 270 mg/day
[3]; 30 mg + 30 mg + 80 mg on the day, four fifths of a bottle of Scotch over several hours, next day
  craving after third challenge: no craving and no desire whatsoever to drink liquor
[3]; 120 mg/day (40 mg three times per day), symptom-free for more than one year
  craving and symptoms before challenge: completely suppressed craving and symptoms
[3]; 180 mg/day for six days, then maintenance dose of 120 mg/day
  craving during follow-up after third challenge: has not experienced any craving for more than one year
[3]; 3 standard drinks (gin and tonic) over a few hours, 120 mg/day, after a night's sleep
  craving after first challenge: no desire or thought to drink whatsoever
[3]; 5 drinks of vodka and tonic over 6 hours, 120 mg/day, next day in the afternoon
  craving after second challenge: a bout of craving was experienced
[3]; second challenge, 60 mg three times daily (180 mg/day)
  craving on the increased regimen: craving was again completely suppressed
[3]; second challenge, administration of 40 mg, craving reappeared several hours later
  effect of an additional dose on the bout of craving: suppressed the craving within the hour
[3]; second challenge, after six days at 180 mg/day progressively reduced to 120 mg/day
  craving after dose reduction: cravings did not reoccur
